Measured values: ChEMBL document CHEMBL3232957, “Some non-conventional biomolecular targets for diamidines. A short survey” (Bioorg Med Chem, 2014)

Key:
[1] = Inhibition of mouse polyamine oxidase assessed as conversion of N-acetylspermine to […]
[2] = molecular target: T1, Acid-sensing ion channel 1 (Mus musculus) (UniProt Q6NXK8); assay: Inhibition of mouse hippocampal neurons ASIC1b transfected in CHO cells assessed as reduction of acid-evoked current at 3 uM at -60 mV holding potential by two-electrode voltage-clamp electrophysiology assay; format: cell-based
T1 sequence (whole entry): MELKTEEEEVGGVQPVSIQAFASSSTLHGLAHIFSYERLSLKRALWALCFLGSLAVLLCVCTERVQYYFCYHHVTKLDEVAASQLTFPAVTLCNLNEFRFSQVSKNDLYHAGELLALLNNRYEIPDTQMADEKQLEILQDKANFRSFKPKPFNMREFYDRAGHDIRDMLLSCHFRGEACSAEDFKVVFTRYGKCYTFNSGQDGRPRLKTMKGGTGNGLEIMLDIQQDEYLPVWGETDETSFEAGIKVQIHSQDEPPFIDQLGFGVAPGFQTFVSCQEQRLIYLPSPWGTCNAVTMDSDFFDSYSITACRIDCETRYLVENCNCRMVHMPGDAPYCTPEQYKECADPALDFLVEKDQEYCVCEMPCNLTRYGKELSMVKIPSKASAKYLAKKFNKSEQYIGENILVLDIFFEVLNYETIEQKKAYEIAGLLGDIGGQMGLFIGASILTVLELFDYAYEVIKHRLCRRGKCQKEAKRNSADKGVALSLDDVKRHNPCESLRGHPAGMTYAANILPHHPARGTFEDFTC

[3] = molecular target: T2, Diamine oxidase [copper-containing] (Homo sapiens, UniProt P19801); assay: Mixed type inhibition of recombinant human DAO expressed in drosophila S2 cells; format: cell-based
T2 sequence (P19801 whole entry): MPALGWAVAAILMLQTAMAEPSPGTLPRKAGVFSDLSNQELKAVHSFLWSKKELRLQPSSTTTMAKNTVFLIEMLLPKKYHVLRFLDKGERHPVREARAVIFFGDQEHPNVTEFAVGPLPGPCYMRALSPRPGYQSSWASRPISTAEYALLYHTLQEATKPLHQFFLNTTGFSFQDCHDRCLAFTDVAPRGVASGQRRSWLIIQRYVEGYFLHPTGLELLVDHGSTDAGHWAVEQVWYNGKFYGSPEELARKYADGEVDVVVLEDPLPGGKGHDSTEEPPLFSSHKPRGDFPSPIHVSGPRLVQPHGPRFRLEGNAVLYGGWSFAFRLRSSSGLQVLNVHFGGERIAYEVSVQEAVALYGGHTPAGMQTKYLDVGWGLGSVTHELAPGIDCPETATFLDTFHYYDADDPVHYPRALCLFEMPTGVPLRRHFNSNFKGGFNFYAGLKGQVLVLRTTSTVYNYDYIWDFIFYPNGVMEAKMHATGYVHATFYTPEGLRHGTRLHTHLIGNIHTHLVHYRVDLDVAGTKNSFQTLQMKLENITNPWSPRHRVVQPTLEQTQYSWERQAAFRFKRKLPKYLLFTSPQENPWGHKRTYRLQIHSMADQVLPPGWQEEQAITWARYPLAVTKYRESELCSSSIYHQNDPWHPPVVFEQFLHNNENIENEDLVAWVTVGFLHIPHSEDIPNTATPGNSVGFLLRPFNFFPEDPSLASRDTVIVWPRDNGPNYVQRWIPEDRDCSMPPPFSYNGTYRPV

[4] = molecular target: Glutamate NMDA receptor; GRIN1/GRIN2A (Homo sapiens, UniProt Q05586+Q12879); assay: Antagonist activity at NR1/NR2A receptor (unknown origin) expressed in Xenopus laevis oocytes assessed as inhibition of glutamate/glycine-induced current at pH 7.6 at -40mV holding potential by two-electrode voltage-clamp electrophysiology; format: cell-based
Glutamate NMDA receptor; GRIN1/GRIN2A, sequence (Q12879 whole entry, other chains not shown): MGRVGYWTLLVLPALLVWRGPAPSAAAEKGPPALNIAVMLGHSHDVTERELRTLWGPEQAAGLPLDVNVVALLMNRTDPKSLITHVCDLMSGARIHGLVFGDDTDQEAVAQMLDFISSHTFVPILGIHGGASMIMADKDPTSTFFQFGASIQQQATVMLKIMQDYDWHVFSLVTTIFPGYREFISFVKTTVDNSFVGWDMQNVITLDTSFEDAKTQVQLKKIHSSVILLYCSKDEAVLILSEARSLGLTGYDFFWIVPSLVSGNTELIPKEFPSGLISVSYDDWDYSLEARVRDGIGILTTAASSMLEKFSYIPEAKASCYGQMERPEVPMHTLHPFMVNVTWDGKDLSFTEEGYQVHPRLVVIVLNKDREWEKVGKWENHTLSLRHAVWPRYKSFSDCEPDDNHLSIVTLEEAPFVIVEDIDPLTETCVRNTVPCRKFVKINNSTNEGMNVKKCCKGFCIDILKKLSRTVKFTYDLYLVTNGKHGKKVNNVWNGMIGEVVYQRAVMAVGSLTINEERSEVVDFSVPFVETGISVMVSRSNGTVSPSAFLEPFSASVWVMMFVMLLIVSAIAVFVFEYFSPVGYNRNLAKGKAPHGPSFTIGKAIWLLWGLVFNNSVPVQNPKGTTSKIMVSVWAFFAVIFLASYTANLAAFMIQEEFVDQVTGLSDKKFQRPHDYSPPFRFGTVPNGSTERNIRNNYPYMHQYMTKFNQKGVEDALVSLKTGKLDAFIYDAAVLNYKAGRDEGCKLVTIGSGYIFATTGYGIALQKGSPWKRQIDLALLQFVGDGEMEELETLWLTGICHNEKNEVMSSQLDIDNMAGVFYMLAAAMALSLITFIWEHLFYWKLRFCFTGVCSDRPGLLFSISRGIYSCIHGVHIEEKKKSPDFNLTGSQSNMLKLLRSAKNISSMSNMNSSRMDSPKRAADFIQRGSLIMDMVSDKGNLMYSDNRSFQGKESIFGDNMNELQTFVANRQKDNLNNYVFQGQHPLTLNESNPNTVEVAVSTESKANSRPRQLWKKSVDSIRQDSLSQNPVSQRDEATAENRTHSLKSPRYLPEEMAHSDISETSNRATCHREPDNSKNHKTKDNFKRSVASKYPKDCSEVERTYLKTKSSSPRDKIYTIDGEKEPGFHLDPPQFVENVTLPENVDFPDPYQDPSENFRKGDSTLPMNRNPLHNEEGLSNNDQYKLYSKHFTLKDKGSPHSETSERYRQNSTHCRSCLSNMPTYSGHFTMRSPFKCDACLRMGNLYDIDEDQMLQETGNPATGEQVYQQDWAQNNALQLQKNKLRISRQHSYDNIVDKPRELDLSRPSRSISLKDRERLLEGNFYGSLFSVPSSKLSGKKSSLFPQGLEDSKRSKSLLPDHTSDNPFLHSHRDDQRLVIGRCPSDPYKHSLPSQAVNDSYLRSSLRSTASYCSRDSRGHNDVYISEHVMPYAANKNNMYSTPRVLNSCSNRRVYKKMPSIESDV

[5] = Antiproliferative activity against human C8146A cells assessed as growth inhibition; format: functional, cell-based
[6] = molecular target: T1, Acid-sensing ion channel 1 (Mus musculus); assay: Inhibition of mouse hippocampal neurons ASIC1a transfected in CHO cells assessed as reduction of acid-evoked current at 3 uM at -60 mV holding potential by two-electrode voltage-clamp electrophysiology assay; format: cell-based
[7] = molecular target: T3, Acid-sensing ion channel 3 (Mus musculus) (UniProt Q6X1Y6); assay: Inhibition of mouse hippocampal neurons ASIC3 transfected in CHO cells assessed as reduction of acid-evoked current at 3 uM at -60 mV holding potential by two-electrode voltage-clamp electrophysiology assay; format: cell-based
T3 sequence (whole entry): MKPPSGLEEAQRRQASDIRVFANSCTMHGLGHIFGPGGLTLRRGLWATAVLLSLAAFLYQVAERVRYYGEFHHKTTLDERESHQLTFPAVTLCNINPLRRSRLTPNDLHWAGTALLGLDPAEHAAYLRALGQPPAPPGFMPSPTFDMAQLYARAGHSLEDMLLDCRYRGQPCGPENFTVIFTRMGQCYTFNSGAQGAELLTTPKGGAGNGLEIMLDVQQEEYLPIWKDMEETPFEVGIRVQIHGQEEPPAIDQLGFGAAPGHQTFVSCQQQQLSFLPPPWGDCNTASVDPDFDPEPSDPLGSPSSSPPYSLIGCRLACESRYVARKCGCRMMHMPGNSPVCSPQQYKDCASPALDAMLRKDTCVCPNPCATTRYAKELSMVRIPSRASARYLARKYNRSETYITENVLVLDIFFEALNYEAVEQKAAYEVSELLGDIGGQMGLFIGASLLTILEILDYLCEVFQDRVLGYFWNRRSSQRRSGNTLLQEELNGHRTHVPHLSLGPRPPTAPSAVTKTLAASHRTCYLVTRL

[8] = Binding affinity to r(CUG)6 (unknown origin) assessed as inhibition of RNA-MBNL1 interaction by quantitative TR-FRET assay
[9] = molecular target: T4, Acid-sensing ion channel 2 (Mus musculus) (UniProt Q925H0); assay: Inhibition of mouse hippocampal neurons ASIC2a transfected in CHO cells assessed as reduction of acid-evoked current at 3 uM at -60 mV holding potential by two-electrode voltage-clamp electrophysiology assay; format: cell-based
T4 sequence (whole entry): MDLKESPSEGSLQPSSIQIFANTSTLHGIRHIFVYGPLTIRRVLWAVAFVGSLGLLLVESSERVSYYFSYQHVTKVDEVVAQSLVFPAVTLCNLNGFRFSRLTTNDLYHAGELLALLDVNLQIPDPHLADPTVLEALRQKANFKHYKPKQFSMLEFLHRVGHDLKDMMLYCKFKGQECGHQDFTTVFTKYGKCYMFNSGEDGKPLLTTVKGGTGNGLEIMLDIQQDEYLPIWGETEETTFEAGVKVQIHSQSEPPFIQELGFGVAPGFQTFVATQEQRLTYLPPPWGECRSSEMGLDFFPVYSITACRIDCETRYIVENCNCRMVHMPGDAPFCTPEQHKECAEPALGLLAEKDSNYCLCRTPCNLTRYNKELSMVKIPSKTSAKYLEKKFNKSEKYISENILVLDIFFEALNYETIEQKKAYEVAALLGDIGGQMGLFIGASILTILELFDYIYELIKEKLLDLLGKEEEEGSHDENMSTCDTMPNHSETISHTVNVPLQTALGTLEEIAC

[10] = Inhibition of mouse hippocampal neurons ASIC transfected in CHO cells assessed as inhibition of acid-evoked current at -60 mV holding potential by two-electrode voltage-clamp electrophysiology assay; format: cell-based
[11] = molecular target: Diamine acetyltransferase 1 (Homo sapiens, UniProt P21673); assay: Inhibition of human SSAT using spermidine as substrate
Diamine acetyltransferase 1, sequence (P21673 whole entry): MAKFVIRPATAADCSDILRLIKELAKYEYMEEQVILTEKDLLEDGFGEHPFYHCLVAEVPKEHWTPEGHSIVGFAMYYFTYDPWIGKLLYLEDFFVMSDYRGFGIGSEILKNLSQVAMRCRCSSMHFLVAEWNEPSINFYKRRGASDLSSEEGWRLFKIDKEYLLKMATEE

Homo sapiens [12] = species on record: Homo sapiens; assay: Inhibition of human KIR2.X channel assessed as remaining outward current at 0.2 uM; values are per cent of control
Homo sapiens [13] = species on record: Homo sapiens; assay: Inhibition of human KIR2.X channel assessed as remaining inward current at 0.2 uM; values are per cent of control
[14] = molecular target: Glutamate [NMDA] receptor; assay: Antagonist activity at NMDA receptor (unknown origin); design: species or system Homo sapiens
Mus musculus [15] = assay: Neuroprotective activity in Swiss mouse focal cerebral injury model assessed as reduction of ibotenate-induced lesion size in gray matter at 4 ug/kg; format: functional; design: scale not given: the % may be the effect or the level left
Mus musculus [16] = assay: Neuroprotective activity in Swiss mouse focal cerebral injury model assessed as reduction of ibotenate-induced lesion size in white matter at 4 ug/kg; format: functional; design: scale not given: the % may be the effect or the level left

N=C(N)c1ccc(OCCCCCOc2ccc(C(=N)N)cc2)cc1 [PENTAMIDINE]
Ki [1]: 7.6 µM
inhibition [2]: 92%
Ki [3]: 0.29 µM
IC50 [4]: 0.72 µM
IC50 [5]: 1.2 µM
inhibition [6]: 39%
inhibition [7]: 74%
IC50 [8]: > 1000 µM
inhibition [9]: 51%
IC50 [10]: 38 µM
Ki [11]: 2 µM
residual activity (Homo sapiens [12]): 10.8%
residual activity (Homo sapiens [13]): 48.2%

N=C(N)c1ccc(NC(=O)c2ccc(C(=O)Nc3ccc(C(=N)N)cc3)c(N)c2)cc1
IC50 [8]: 10 µM

Cc1c(NS(=O)(=O)c2ccc(NC(=O)CCC(=O)O)cc2)c(=O)n(-c2ccccc2)n1C
IC50 [5]: > 100 µM

CC(C)(C)NC(=O)c1cccc(N2C(=O)c3ccc(C(=O)O)cc3C2=O)c1
IC50 [5]: > 100 µM

N=C(N)NC(=N)Nc1ccc(Cl)cc1C(=O)c1ccccc1
IC50 [5]: 12 µM

N=C(Nc1ccc(OCCCCCOc2ccc(NC(=N)c3ccccc3)cc2)cc1)c1ccccc1
residual activity (Homo sapiens [12]): 12.1%
residual activity (Homo sapiens [13]): 86.6%

Cc1cc(C)c(N2C(=O)c3ccc(C(=O)Nc4cc(C(=O)O)cc(C(=O)O)c4)cc3C2=O)c(C)c1
IC50 [5]: 44 µM

N=C(N)c1ccc(/C=C/c2ccc(C(=N)N)cc2O)cc1 [HYDROXYSTILBAMIDINE]
IC50 [10]: 1.5 µM

CNC1(c2ccccc2Cl)CCCCC1=O (stereo not drawn) [KETAMINE]
IC50 [4]: 3.31 µM

N=C(N)c1ccc(N2CCCN(c3ccc(C(=N)N)cc3)CC2)cc1
IC50 [14]: 1.19 µM

N=C(N)c1ccc(-c2cc3ccc(C(=N)N)cc3[nH]2)cc1 [DAPI]
IC50 [10]: 2.8 µM

N=C(N)c1ccc(OCCOc2cccc(N)c2)cc1
IC50 [8]: 250 µM

CN1CC[C@@]23CCCC[C@@H]2[C@@H]1Cc1ccc(O)cc13 [DEXTRORPHAN]
IC50 [4]: 1.3 µM

N=C(N)c1ccc(/N=N/Nc2ccc(C(=N)N)cc2)cc1 [DIMINAZENE]
Ki [1]: 120 µM
Ki [3]: 0.013 µM
IC50 [10]: 0.3 µM
Ki [11]: 2.4 µM

N=C(N)NC(=N)Nc1cccc(Cl)c1Cl
IC50 [5]: 8 µM

N=C(N)c1ccc(NCCNc2ccc(C(=N)N)cc2)cc1
Activity (Mus musculus [15]): 49%
Activity (Mus musculus [16]): 69%
